Experimental data taken from US20260286309A1, “DIFFERENTIATION OF IPSCS IN BIOREACTORS” (REPAIRON GMBH, priority 2022, published 2026).

What was measured:
iPSCs (TC1133) [1] = experiment: Cardiac differentiation of iPSCs in suspension (ambr15, 2-factor protocol CHIR/IWP4); type: cell-based, human
Protocol: The cardiac differentiation potential of iPSCs after long-term culture was assessed by direct differentiation into iPSC-CMs using a published 2-factor protocol (Chen et al., 2015). iPSC aggregates were differentiated in the ambr15 system and the medium was exchanged manually. Briefly, the basal medium on day 0-5 consisted of RPMI 1640+2% B-27 supplement without insulin. From day 6 onwards the basal medium was RPMI 1640+2% b-27 supplement. To initiate mesodermal differentiation, CHIR was added in varying concentrations on day 1. 5 μM IWP4 was added on day 2 and 3 or day 3 and 4 to initiate cardiac differentiation. A main goal of this project was to ensure that the cardiac differentiation potential remains in iPSCs that are cultivated with the developed expansion strategy. The cardiac differentiation potential was assessed by using a published protocol for the directed cardiac differentiation of PSCs in suspension culture (Chen et al., 2015). iPSCs in suspension were successfully differentiated into iPSC-CMs during early passages (Cultivation Optimization Run 12) and during late passages (Cultivation Optimization Run 13) of long-term cultures. Thereby, proof of concept was shown that iPSCs generated with the developed expansion strategy can be used to produce iPSC-CMs in suspension culture.

iPSCs (TC1133) [2] = experiment: Y27632 pretreatment before automatic passaging of iPSC aggregates in ambr15 suspension culture (Cultivation Optimization Run 08); type: cell-based, human
From the text: The nucleocounter NC-200 offers fast and reliable assessment of cell number and viability. Furthermore, it is GMP-compliant and is used during the production stage. Single cell suspensions may be directly measured with the NC-200, whereas suspensions with high content of cell clumps should be treated according to special protocols, supplied with the NC-200. These protocols include cell lysis to ensure distinguishability of single nuclei. However, large iPSC aggregates of about 70-250 μm, which were obtained in the suspension culture, could not be sufficiently lysed with the provided protocols within a reasonable time. Therefore, iPSC aggregates were digested using TrypLE before measurement with the NC-200. […] This suspension was then used for measurement with the NC-200 using the “Viability and Cell Count—A100 and B Assay” intended for small cell aggregates.
The pluripotency state of iPSCs was assessed by analyzing the pluripotency-related markers NANOG, TRA-1-60, and OCT4 using flow cytometry. iPSC aggregates were digested with TrypLE to achieve a near singe cell suspension. Subsequently the cells were fixed by adding Histofix to the cell suspension in a 1:1 ratio (resulting in 2% PFA). For analysis, the cells were stained with fluorochrome-conjugated antibodies. Dead cells were excluded from the analysis with Hoechst staining. Accordingly, the expression of a-Actinin and cTNT was analyzed to assess the success of cardiac differentiation.
The aggregate size was analyzed using a Cellavista device. Culture samples were transferred into a 24-well plate prepared with PBS (—Ca2+/—Mg2+) and measured with the Cellavista. Images were processed by the Cellavista software by applying a threshold to discriminate aggregates from background. The software FIJI (Schindelin et al., 2012) was subsequently used to analyze aggregate size.
To increase the degree of reaggregation, pretreatment with ROCK inhibitor Y27632 was tested. Pretreatment of iPSCs with Y27632 has been reported for other procedures that require cell singularization and are stressful for iPSCs (Chatterjee et al., 2011). […]

Row | Structure (SMILES) | optimal concentration for successful cardiac differentiation (iPSCs (TC1133) [1]; iPSCs of earlier passages (passage 0)) [µM] | optimal concentration for successful cardiac differentiation (iPSCs (TC1133) [1]; iPSCs of later passages (passage 8)) [µM] | expression of NANOG (iPSCs (TC1133) [2]; day 3, passage 1, flow cytometry, Y27632 pretreatment) [%] | expansion rate (iPSCs (TC1133) [2]; day 5, passage 1, 10 μM Y27632 pretreatment, Versene passaging) [fold] | aggregate size (mean) (iPSCs (TC1133) [2]; passage 1, Y27632 pretreatment) [μm]
1 | Cc1c[nH]c(-c2cnc(NCCNc3ccc(C#N)cn3)nc2-c2ccc(Cl)cc2Cl)n1 [CHIR, CHIR99021] | 6 | 18 |  |  | 
2 | C[C@@H](N)[C@H]1CC[C@H](C(=O)Nc2ccncc2)CC1 [Y27632] |  |  | 93 | 9 | 162
